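Interpolation was linear, between the two tested concentrations surrounding the appropriate level; five concentrations were tested over 48 hours in 96-well plates. GI50 marks 50% less growth. TGI marks complete inhibition of growth.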
Tests used:
Experiment in all cases: DTP human tumour cell line panel, 48 h
SF-268 CNS = test system: SF-268 CNS
MCF7 breast = test system: MCF7 breast
SR leukemia = test system: SR leukemia
MOLT-4 leukemia = test system: MOLT-4 leukemia
NCI-H522 lung = test system: NCI-H522 lung
HOP-62 NSCLC = test system: HOP-62 NSCLC
SNB-19 CNS = test system: SNB-19 CNS
NCI-H460 lung = test system: NCI-H460 lung
SK-MEL-28 melanoma = test system: SK-MEL-28 melanoma
KM12 colon = test system: KM12 colon
A498 renal = test system: A498 renal
SNB-75 CNS = test system: SNB-75 CNS
LOX IMVI melanoma = test system: LOX IMVI melanoma
HT29 colon = test system: HT29 colon
DU-145 prostate = test system: DU-145 prostate
UO-31 renal = test system: UO-31 renal
NCI-H226 lung = test system: NCI-H226 lung
SF-539 CNS = test system: SF-539 CNS
HCC-2998 colon = test system: HCC-2998 colon
BT-549 breast = test system: BT-549 breast
NCI/ADR-RES ovarian = test system: NCI/ADR-RES ovarian
M14 melanoma = test system: M14 melanoma
MDA-MB-231 breast = test system: MDA-MB-231 breast
OVCAR-3 ovarian = test system: OVCAR-3 ovarian
COLO 205 colon = test system: COLO 205 colon
PC-3 prostate = test system: PC-3 prostate
A549 NSCLC = test system: A549 NSCLC
RXF 393 renal = test system: RXF 393 renal
HCT-116 colon = test system: HCT-116 colon
ACHN renal = test system: ACHN renal
K-562 leukemia = test system: K-562 leukemia
IGROV1 ovarian = test system: IGROV1 ovarian
TK-10 renal = test system: TK-10 renal
OVCAR-8 ovarian = test system: OVCAR-8 ovarian
RPMI-8226 leukemia = test system: RPMI-8226 leukemia
786-0 renal = test system: 786-0 renal
EKVX NSCLC = test system: EKVX NSCLC
SK-OV-3 ovarian = test system: SK-OV-3 ovarian
OVCAR-4 ovarian = test system: OVCAR-4 ovarian
HS 578T breast = test system: HS 578T breast
SF-295 CNS = test system: SF-295 CNS
HOP-92 NSCLC = test system: HOP-92 NSCLC
SK-MEL-5 melanoma = test system: SK-MEL-5 melanoma
NCI-H23 lung = test system: NCI-H23 lung
CCRF-CEM leukemia = test system: CCRF-CEM leukemia
SW-620 colon = test system: SW-620 colon
T-47D breast = test system: T-47D breast
SK-MEL-2 melanoma = test system: SK-MEL-2 melanoma
SN12C renal = test system: SN12C renal
U251 CNS = test system: U251 CNS
HCT-15 colon = test system: HCT-15 colon
CAKI-1 renal = test system: CAKI-1 renal
MDA-MB-435 = test system: MDA-MB-435
UACC-62 melanoma = test system: UACC-62 melanoma
UACC-257 melanoma = test system: UACC-257 melanoma
OVCAR-5 ovarian = test system: OVCAR-5 ovarian

`O=c1[nH]nc(-c2nn(-c3ccc(Cl)cc3)cc2O)o1` was tested, and the GI50 (SF-268 CNS) was 0.117 µM, the TGI (SF-268 CNS) was > 100 µM and the GI50 (MCF7 breast) was 0.34 µM. The TGI (MCF7 breast) was > 100 µM, the GI50 (SR leukemia) was 0.0334 µM and the TGI (SR leukemia) was 0.266 µM. The GI50 (MOLT-4 leukemia) was 0.0537 µM, the TGI (MOLT-4 leukemia) was 0.944 µM and the GI50 (NCI-H522 lung) was 0.696 µM. The TGI (NCI-H522 lung) was > 100 µM, the GI50 (HOP-62 NSCLC) was 0.099 µM and the TGI (HOP-62 NSCLC) was 36 µM. For the same compound, the GI50 (SNB-19 CNS) was 0.187 µM, the TGI (SNB-19 CNS) was > 100 µM and the GI50 (NCI-H460 lung) was 0.0429 µM. For the same compound, the TGI (NCI-H460 lung) was > 100 µM, the GI50 (SK-MEL-28 melanoma) was 25.1 µM and the TGI (SK-MEL-28 melanoma) was > 100 µM. It also gave a GI50 (KM12 colon) of 0.134 µM, a GI50 (A498 renal) of 0.087 µM and a TGI (A498 renal) of 0.464 µM. For the same compound, the GI50 (SNB-75 CNS) was 0.227 µM, the TGI (SNB-75 CNS) was > 100 µM and the GI50 (LOX IMVI melanoma) was 0.194 µM. For the same compound, the TGI (LOX IMVI melanoma) was > 43.3 µM, the GI50 (HT29 colon) was 2.02 µM and the TGI (HT29 colon) was > 100 µM. For the same compound, the GI50 (DU-145 prostate) was 0.0562 µM, the TGI (DU-145 prostate) was 1.45 µM and the GI50 (UO-31 renal) was 0.331 µM. The TGI (UO-31 renal) was > 34.3 µM, the GI50 (NCI-H226 lung) was 0.133 µM and the TGI (NCI-H226 lung) was 3.73 µM. For the same compound, the GI50 (SF-539 CNS) was 0.0741 µM, the TGI (SF-539 CNS) was 2.24 µM and the GI50 (HCC-2998 colon) was 0.238 µM. For the same compound, the TGI (HCC-2998 colon) was 3.5 µM, the GI50 (BT-549 breast) was 0.0191 µM and the TGI (BT-549 breast) was 0.219 µM. It also gave a GI50 (NCI/ADR-RES ovarian) of 0.121 µM, a TGI (NCI/ADR-RES ovarian) of 2.75 µM and a GI50 (M14 melanoma) of 0.132 µM. The TGI (M14 melanoma) was 13 µM, the GI50 (MDA-MB-231 breast) was 4.56 µM and the TGI (MDA-MB-231 breast) was > 50.4 µM. For the same compound, the GI50 (OVCAR-3 ovarian) was 0.472 µM, the TGI (OVCAR-3 ovarian) was 12.5 µM and the GI50 (COLO 205 colon) was 3.25 µM. The TGI (COLO 205 colon) was > 100 µM, the GI50 (PC-3 prostate) was 0.401 µM and the TGI (PC-3 prostate) was > 100 µM. For the same compound, the GI50 (A549 NSCLC) was 0.0913 µM, the TGI (A549 NSCLC) was > 100 µM and the GI50 (RXF 393 renal) was 0.741 µM. The TGI (RXF 393 renal) was > 72.4 µM, the GI50 (HCT-116 colon) was 0.0718 µM and the TGI (HCT-116 colon) was 0.927 µM. The GI50 (ACHN renal) was 0.142 µM, the TGI (ACHN renal) was > 100 µM and the GI50 (K-562 leukemia) was 0.046 µM. The GI50 (IGROV1 ovarian) was 0.117 µM, the TGI (IGROV1 ovarian) was > 100 µM and the GI50 (TK-10 renal) was 0.0376 µM. For the same compound, the TGI (TK-10 renal) was 0.276 µM, the GI50 (OVCAR-8 ovarian) was 0.317 µM and the TGI (OVCAR-8 ovarian) was > 100 µM. For the same compound, the GI50 (RPMI-8226 leukemia) was 0.172 µM, the GI50 (786-0 renal) was 0.519 µM and the TGI (786-0 renal) was 36.5 µM. The GI50 (EKVX NSCLC) was 0.0925 µM, the TGI (EKVX NSCLC) was 0.904 µM and the GI50 (SK-OV-3 ovarian) was 0.385 µM. The TGI (SK-OV-3 ovarian) was > 100 µM, the TGI (OVCAR-4 ovarian) was > 100 µM and the GI50 (HS 578T breast) was 0.0619 µM. The TGI (HS 578T breast) was 3.16 µM, the GI50 (SF-295 CNS) was 0.0518 µM and the TGI (SF-295 CNS) was > 100 µM. The GI50 (HOP-92 NSCLC) was 0.28 µM, the GI50 (SK-MEL-5 melanoma) was 0.201 µM and the TGI (SK-MEL-5 melanoma) was 1.44 µM. It also gave a GI50 (NCI-H23 lung) of 0.108 µM, a TGI (NCI-H23 lung) of 0.673 µM and a GI50 (CCRF-CEM leukemia) of 0.303 µM. The TGI (CCRF-CEM leukemia) was > 62.1 µM, the GI50 (SW-620 colon) was 0.47 µM and the TGI (SW-620 colon) was > 100 µM. The GI50 (T-47D breast) was 0.221 µM, the TGI (T-47D breast) was > 100 µM and the GI50 (SK-MEL-2 melanoma) was 0.536 µM. The TGI (SK-MEL-2 melanoma) was 46.2 µM, the GI50 (SN12C renal) was 0.119 µM and the TGI (SN12C renal) was 5.77 µM. The GI50 (U251 CNS) was 0.025 µM, the TGI (U251 CNS) was > 100 µM and the GI50 (HCT-15 colon) was 0.152 µM. For the same compound, the TGI (HCT-15 colon) was > 100 µM, the GI50 (CAKI-1 renal) was 0.156 µM and the TGI (CAKI-1 renal) was 13 µM. It also gave a GI50 (MDA-MB-435) of 0.0205 µM, a GI50 (UACC-62 melanoma) of 0.166 µM and a TGI (UACC-62 melanoma) of 2.82 µM. The GI50 (UACC-257 melanoma) was 0.61 µM, the TGI (UACC-257 melanoma) was > 100 µM and the GI50 (OVCAR-5 ovarian) was 0.499 µM. For the same compound, the TGI (OVCAR-5 ovarian) was > 100 µM.

Source: PubChem BioAssay (NCI)
